Test results: PubChem BioAssay (NCI)
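A five-concentration, 48-hour dose response in 96-well plates underlies each endpoint, interpolated linearly between surrounding concentrations. At the TGI there is no net growth.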

Experiments:
Test in all cases: NCI tumour cell line growth inhibition, 48 h
SNB-75 CNS = tested on: SNB-75 CNS
MALME-3M melanoma = tested on: MALME-3M melanoma
HCC-2998 colon = tested on: HCC-2998 colon
MDA-N = tested on: MDA-N
RXF 393 renal = tested on: RXF 393 renal
NCI-H226 lung = tested on: NCI-H226 lung
RPMI-8226 leukemia = tested on: RPMI-8226 leukemia
NCI-H460 lung = tested on: NCI-H460 lung
BT-549 breast = tested on: BT-549 breast
NCI-H522 lung = tested on: NCI-H522 lung
SN12C renal = tested on: SN12C renal
UACC-257 melanoma = tested on: UACC-257 melanoma
UO-31 renal = tested on: UO-31 renal
HOP-62 NSCLC = tested on: HOP-62 NSCLC
MDA-MB-231 breast = tested on: MDA-MB-231 breast
HCT-15 colon = tested on: HCT-15 colon
SR leukemia = tested on: SR leukemia
SK-MEL-28 melanoma = tested on: SK-MEL-28 melanoma
EKVX NSCLC = tested on: EKVX NSCLC
SF-268 CNS = tested on: SF-268 CNS
UACC-62 melanoma = tested on: UACC-62 melanoma
SNB-19 CNS = tested on: SNB-19 CNS
SK-OV-3 ovarian = tested on: SK-OV-3 ovarian
U251 CNS = tested on: U251 CNS
SF-539 CNS = tested on: SF-539 CNS
MCF7 breast = tested on: MCF7 breast
K-562 leukemia = tested on: K-562 leukemia
LOX IMVI melanoma = tested on: LOX IMVI melanoma
ACHN renal = tested on: ACHN renal
SK-MEL-2 melanoma = tested on: SK-MEL-2 melanoma
KM12 colon = tested on: KM12 colon
CCRF-CEM leukemia = tested on: CCRF-CEM leukemia
TK-10 renal = tested on: TK-10 renal
HT29 colon = tested on: HT29 colon
MDA-MB-435 = tested on: MDA-MB-435
OVCAR-5 ovarian = tested on: OVCAR-5 ovarian
HS 578T breast = tested on: HS 578T breast
A498 renal = tested on: A498 renal
NCI-H23 lung = tested on: NCI-H23 lung
HL-60(TB) leukemia = tested on: HL-60(TB) leukemia
HCT-116 colon = tested on: HCT-116 colon
T-47D breast = tested on: T-47D breast
MOLT-4 leukemia = tested on: MOLT-4 leukemia
DU-145 prostate = tested on: DU-145 prostate
OVCAR-3 ovarian = tested on: OVCAR-3 ovarian
M14 melanoma = tested on: M14 melanoma
SW-620 colon = tested on: SW-620 colon
HOP-92 NSCLC = tested on: HOP-92 NSCLC
COLO 205 colon = tested on: COLO 205 colon
OVCAR-4 ovarian = tested on: OVCAR-4 ovarian
SF-295 CNS = tested on: SF-295 CNS
786-0 renal = tested on: 786-0 renal
CAKI-1 renal = tested on: CAKI-1 renal
PC-3 prostate = tested on: PC-3 prostate
IGROV1 ovarian = tested on: IGROV1 ovarian
A549 NSCLC = tested on: A549 NSCLC
SK-MEL-5 melanoma = tested on: SK-MEL-5 melanoma

Measured: TGI

CCOC(=O)NC(Nc1ncccn1)(C(F)(F)F)C(F)(F)F
not listed: SW-620 colon | HOP-92 NSCLC | COLO 205 colon | OVCAR-4 ovarian | SF-295 CNS | 786-0 renal | CAKI-1 renal | PC-3 prostate | IGROV1 ovarian | A549 NSCLC | SK-MEL-5 melanoma
> 100 µM: all other assays above

Cc1cccc(C(C)C)c1NC(=O)C(=O)CC(=O)c1sc(Nc2ccccc2Cl)nc1C
54.6 µM: MDA-N
87.9 µM: SK-MEL-5 melanoma
24.7 µM: SF-539 CNS
93.2 µM: BT-549 breast
32.7 µM: HCC-2998 colon
41 µM: HL-60(TB) leukemia
33.2 µM: MDA-MB-435
51.1 µM: NCI-H460 lung
66.2 µM: HOP-92 NSCLC
not listed: NCI-H226 lung | K-562 leukemia | HT29 colon
> 100 µM: all other assays above
